Laboratory results taken from paper PMC12216609, “Inhibitors of eIF1A-ribosome interaction unveil uORF-dependent regulation of translation initiation and antitumor and antiviral effects” (The EMBO Journal, 2025).
Values joined by “and” are separate entries in the source; they are usually repeats but may differ in a detail not shown here. Identical values can stand only once. Like-named read-outs stand apart in the source and are kept apart here.

Experiments:
eIF1A without NTT = target: T1, eIF1A without NTT (Homo sapiens, UniProt P47813); test: Fluorescence binding assay with NTT-truncated eIF1A; details: for fluorescence ratio, eIF1A Δ NTT: background-corrected, relative to DMSO or lowest 1Ai concentration, replicate columns
T1 construct: His-bdSUMO (cleaved yes); made in house; host or cells: E. coli (BL-21)

eIF1A-RPS10 interaction = target: T2, eIF1A-RPS10 interaction (Homo sapiens, UniProt P46783+P47813); test: Split-Renilla luciferase eIF1A-RPS10 interaction screen, dose-response; format: biochemical
T2 construct: made in house; host or cells: E. coli BL21 (PRSFduet); unpurified lysate supernatant
In short: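 Reconstituted Renilla luciferase activity reports eIF1A-RPS10 binding; loss indicates disruption by compound. Recombinant fusions (eIF1A C-terminus to N-RL; RPS10-ΔN-Renilla) expressed in E. coli BL21, used as sonicated supernatants in Tris/KCl/EDTA buffer, with unfused split-RL halves as controls.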

eIF1A without CTT = target: T3, eIF1A without CTT (Homo sapiens, UniProt P47813); format: binding; details: for fluorescence ratio, eIF1A Δ CTT: background-corrected, relative to DMSO or lowest 1Ai concentration, replicate columns
T3 construct: His-bdSUMO (cleaved yes); made in house; host or cells: E. coli (BL-21)

[1] = eIF1A Δ NTT, from the titration data, read-out: IC50 (eIF1A Δ NTT titration block)
[2] = summary table, fluorescence binding assay, read-out: IC50 concentration (µM), NTT truncation
[3] = summary table, read-out: IC50 concentration (µM), IC50 screen
[4] = eIF1A Δ CTT, from the titration data, read-out: IC50 (eIF1A Δ CTT titration block)
[5] = summary table, fluorescence binding assay, read-out: IC50 concentration (µM), CTT truncation
[6] = 1Ai conc. 0.5 uM, listed as 5662

T3 sequence (P47813 1-114 limits assumed): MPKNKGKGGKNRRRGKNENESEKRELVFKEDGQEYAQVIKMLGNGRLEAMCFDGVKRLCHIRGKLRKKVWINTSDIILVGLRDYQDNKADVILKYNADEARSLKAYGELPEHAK
T2 sequence (P47813 whole entry, one chain of several): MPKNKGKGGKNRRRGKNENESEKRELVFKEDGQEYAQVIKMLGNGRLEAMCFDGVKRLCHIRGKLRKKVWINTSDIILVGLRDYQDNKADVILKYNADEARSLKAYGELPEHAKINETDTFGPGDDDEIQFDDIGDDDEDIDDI
T1 sequence (P47813 31-144 limits assumed): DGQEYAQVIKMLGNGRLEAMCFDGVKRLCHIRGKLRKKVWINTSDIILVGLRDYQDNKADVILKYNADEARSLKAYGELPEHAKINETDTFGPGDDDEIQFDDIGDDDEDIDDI

SMILES | fluorescence ratio, eIF1A Δ NTT (eIF1A without NTT; 1Ai conc. 0.25 uM) | fluorescence ratio, eIF1A Δ NTT (eIF1A without NTT; 1Ai conc. 0.5 uM) | fluorescence ratio, eIF1A Δ NTT (eIF1A without NTT; 1Ai conc. 1 uM) | fluorescence ratio, eIF1A Δ NTT (eIF1A without NTT; 1Ai conc. 2 uM) | fluorescence ratio, eIF1A Δ NTT (eIF1A without NTT; 1Ai conc. 4 uM) | fluorescence ratio, eIF1A Δ NTT (eIF1A without NTT; 1Ai conc. 8 uM) | fluorescence ratio, eIF1A Δ NTT (eIF1A without NTT; 1Ai conc. 16 uM) | fluorescence ratio, eIF1A Δ NTT (eIF1A without NTT; 1Ai conc. 32 uM) | fluorescence ratio, eIF1A Δ NTT (eIF1A without NTT; 1Ai conc. 64 uM) | fluorescence ratio, eIF1A Δ NTT (eIF1A without NTT; 1Ai conc. 256 uM) | IC50 (eIF1A-RPS10 interaction; [3]) [µM] | fluorescence ratio, eIF1A Δ CTT (eIF1A without CTT; 1Ai conc. 0.25 uM) | fluorescence ratio, eIF1A Δ CTT (eIF1A without CTT; 1Ai conc. 1 uM) | fluorescence ratio, eIF1A Δ CTT (eIF1A without CTT; 1Ai conc. 2 uM) | fluorescence ratio, eIF1A Δ CTT (eIF1A without CTT; 1Ai conc. 4 uM) | fluorescence ratio, eIF1A Δ CTT (eIF1A without CTT; 1Ai conc. 8 uM) | fluorescence ratio, eIF1A Δ CTT (eIF1A without CTT; 1Ai conc. 16 uM) | fluorescence ratio, eIF1A Δ CTT (eIF1A without CTT; 1Ai conc. 32 uM) | fluorescence ratio, eIF1A Δ CTT (eIF1A without CTT; 1Ai conc. 64 uM) | fluorescence ratio, eIF1A Δ CTT (eIF1A without CTT; 1Ai conc. 256 uM) | also measured
CN1CCN(S(=O)(=O)c2ccc(N3Cc4cc5c(cc4C4(CCCC4)C3)OCCO5)nc2)CC1 [1Ai-3564] | 1 | 1.007 | 0.9932 | 1.2 | 1.048 | 1.009 | 1.298 | 1.4 | 1.423 | 1.807 | 15 | 1.127 and 1.051 | 1.087 and 1.0877 | 1.109 and 1.056 | 1.011 and 1.035 | 0.8478 and 0.8594 | 0.8634 and 0.8337 | 0.9829 and 0.8523 | 1.0625 and 1.083 | 1.108 and 1.021 | IC50 (eIF1A without NTT; [1]): 43.2 µM; IC50 (eIF1A without NTT; [2]): 43.2 µM; binding to CTT-truncated eIF1A (eIF1A without CTT): compromised; fluorescence ratio, eIF1A Δ CTT (eIF1A without CTT; 1Ai conc. 0.5 uM): 1.14 and 1.091; CTT truncation IC50 (eIF1A without CTT; eIF1A without CTT): No binding; IC50 concentration (µM), CTT truncation (eIF1A without CTT; summary table, fluorescence binding assay): No binding
Cc1ccc(C(=O)c2cc(O)c(O)c([N+](=O)[O-])c2)cc1 [1Ai-5576] | 0.8023 and 0.892 | 0.7712 and 0.8267 | 0.7599 and 0.8722 | 0.7825 and 0.8608 | 0.6215 and 0.8636 | 0.5932 and 0.9091 | 0.5932 and 0.7358 | 0.5395 and 0.6733 | 0.7175 and 0.7159 | 0.4605 and 0.6165 | 24 | 0.7373 and 0.785 | 0.744 and 0.7009 | 0.6013 and 0.6558 | 0.5053 and 0.5218 | 0.4227 and 0.4252 | 0.332 and 0.3364 | 0.26 and 0.2352 | 0.208 and 0.1745 | 0.1973 and 0.1667 | binding to NTT-truncated eIF1A (eIF1A without NTT): significantly decreased; fluorescence ratio, eIF1A Δ CTT (eIF1A without CTT; 1Ai conc. 0.5 uM): 0.8173 and 0.7741; IC50 (eIF1A without CTT; [4]): 5.38 µM; IC50 (eIF1A without CTT; [5]): 5.4 µM
CN(C)CC1CCn2cc(c3ccccc32)C2=C(C(=O)NC2=O)c2cn(c3ccccc23)CCO1 (stereo not drawn) [1Ai-5662] | 0.839 and 0.8682 and 1 | 1.068 | 0.9026 and 0.9044 and 1.056 | 0.8689 and 0.9922 and 1.016 | 0.8614 and 0.9638 and 0.988 | 0.8277 and 0.845 and 0.9679 | 0.6816 and 0.8424 and 0.9197 | 0.5918 and 0.6641 and 0.7952 | 0.4307 and 0.4574 and 0.6064 | 0.2846 and 0.3101 and 0.4458 | 25 | 0.8742 and 0.9398 | 0.8798 and 0.8003 | 0.8074 and 0.8109 | 0.7089 and 0.7163 | 0.4859 and 0.6001 | 0.4269 and 0.4563 | 0.2954 and 0.3164 | 0.164 and 0.1518 | 0.1171 and 0.08567 | fluorescence ratio, eIF1A Δ NTT (eIF1A without NTT; [6]): 0.9101 and 0.8837; IC50 (eIF1A without NTT; [1]): 37.9 µM; IC50 (eIF1A without NTT; [2]): 37.9 µM; fluorescence ratio, eIF1A Δ CTT (eIF1A without CTT; [6]): 0.8855 and 0.8821; IC50 (eIF1A without CTT; [4]): 12.4 µM; IC50 (eIF1A without CTT; [5]): 12.4 µM
COc1cccc(Nc2nc(-c3ccc(NC(C)=O)cc3)c(C)s2)c1 [1Ai-1869] | 1 | 0.9867 | 1.085 | 0.9841 | 0.9947 | 0.9125 | 0.8674 | 0.7984 | 0.7082 | 0.6737 | 14 | 0.6232 and 0.681 | 0.6117 and 0.6127 | 0.4666 and 0.4698 | 0.4763 and 0.4603 | 0.4568 and 0.3937 | 0.3246 and 0.3079 | 0.1925 and 0.219 | 0.1778 and 0.2 | 0.2104 and 0.2095 | IC50 (eIF1A without NTT; [1]): 21.3 µM; IC50 (eIF1A without NTT; [2]): 21.3 µM; IC50 (eIF1A-RPS10 interaction; Appendix Table S1, read-out: IC50 from the split RL screen): 18 µM; fluorescence ratio, eIF1A Δ CTT (eIF1A without CTT; 1Ai conc. 0.5 uM): 0.6378 and 0.5984; IC50 (eIF1A without CTT; [4]): 5.75 µM; IC50 (eIF1A without CTT; [5]): 5.7 µM
